row,SMILES,melting point
1,COc1ccc(CCC(C)N(Cc2ccccc2)CC(O)c2ccc(OCc3ccccc3)c(N)c2)cc1OC (stereo unspecified),115 °C
2,CS(=O)(=O)c1ccc(C(Cc2ccccc2F)C(=O)Nc2nc3ccccc3o2)cc1 (stereo unspecified),99 to 100 °C
3,COCc1cc2c(N=C=S)cccc2cn1,88 °C
4,CC(=O)n1cc(C#N)c(-c2ccccc2C(F)(F)F)c1,67 to 69 °C
5,Cc1cc(C)cc(C(=O)NC(=S)Nc2c(O)cc(C)c(Br)c2C)c1,164 to 166 °C
6,CCCn1c(=O)c2[nH]c(C3(N)CCCCC3)nc2n(CCC)c1=O,172 to 173 °C
7,Nc1nc2ccccc2c2c1ncn2CCCCNC(=O)Oc1cccc2ccccc12,89 to 92 °C
8,CC(C)(C)c1ccc(Cn2cnc3c(-c4ccco4)ncnc32)cc1,185 to 187 °C
9,CC(=O)Nc1c(C(=O)c2ccccc2)[nH]c2c(Cl)cccc12,185 to 188 °C
10,Cn1ccc(=O)c(OCc2ccccc2)c1C(O)c1ccc2c(c1)OCO2 (stereo unspecified),230 to 232 °C
11,O=C(Nc1ccc(-n2nc(C(F)(F)F)cc2C(F)(F)F)cc1)c1ccc(F)c(C(F)(F)F)c1,142 to 144 °C
12,O=C(NC(=O)C(F)(F)F)c1ccccc1-c1noc(-c2ccccc2F)n1,119 to 120 °C
13,COc1ccc([C@@H]2Sc3ccccc3N(CCN(C)C)C(=O)[C@@H]2OC(=O)Nc2ccc(F)cc2)cc1 (relative stereo),153 to 154 °C
14,CCOC(=O)c1ccc(C(=O)/C=C/c2ccc(SC)cc2)cc1,115 to 116 °C
15,"CCOC(=O)c1ccc(-c2ccc(C(C)O)cc2)cc1 (single isomer, unassigned; (+))",74.6 °C
16,Cc1cn(-c2cc(C#N)c(N)c(C(F)(F)F)c2)c(C)n1,208 to 210 °C
17,C=C[C@H]1CN2CC[C@H]1C[C@H]2[C@H](OC(=O)c1ccc(OCCCCCC)cc1)c1ccnc2ccccc12,70 °C
18,CC1=C(c2ccccc2)C(=O)N(C(C)(C)C(=O)Nc2cccc(Cl)c2)CO1,114 °C
19,CCOC(=O)C1C2CCC(=O)C21 (stereo unspecified),36 to 38 °C
20,O=C(O)Cc1cc(C2CC2)ccc1Nc1ccc(-c2ccc(F)cc2)cc1F,182 to 183 °C
21,CCOc1nn(-c2cccc3c2OC(C)(C)C3)c(=O)o1,72 to 74 °C
22,CCCCCCCCCCCCCCCCCCOc1ccc(S(=O)(=O)Nc2ccccc2Cl)cc1NC(=O)CC(=O)N1CCc2ccccc21,124 to 128 °C
23,Nc1c(C(=O)c2ccncc2)[nH]c2cc(Cl)ccc12,266 to 267 °C
24,CSc1[nH]ccc1[N+](=O)[O-],212 to 213 °C

row,SMILES,melting point
1,COc1ccc(N)cc1C(=O)NCc1ccc(C(F)(F)F)cc1,115 to 117 °C
2,NC(=O)c1ccc(Cl)c2c1CC([N+](=O)[O-])CO2 (stereo unspecified),193 to 194 °C
3,COC(=O)C(=O)c1sccc1COc1ccccc1,98 to 99 °C
4,c1ccc(COc2cccc3c2OCO3)cc1,62 to 63 °C
5,COc1cc(C2C3=C(COC3=O)Nc3ccc4cn[nH]c4c32)ccc1O (stereo unspecified),238 to 240 °C
6,O=c1ccc(S(=O)(=O)c2oc3ccc(Cl)cc3c2-c2ccccc2)n[nH]1,> 240 °C
7,Cc1c(C)c2c(c(C)c1O)SCO2,131 to 132 °C
8,CN(C)C12CN3CN(CN(C3)C1)C2,110 to 111 °C
9,O=C(Cc1csc(-c2cccc(O)c2)n1)NC1C(=O)N2C(C(=O)OC(c3ccccc3)c3ccccc3)=CCSC12 (stereo unspecified),152 to 154 °C
10,N#Cc1cc2c(nc1NC1CCCCC1)CCCC2=O,143 to 145 °C
11,Cc1ccc2[nH]c(=O)c(C(=O)NC3CCCCC3)c(O)c2c1,269 °C
12,CCOc1ccc(-c2ccc(S(=O)(=O)NC(C(=O)O)C3CCN(CC(C)C)CC3)s2)cc1 (stereo unspecified),220 to 225 °C
13,CC(=NO)C(C)(C)NCC(Cn1ccnc1[N+](=O)[O-])ONC(C)(C)C(C)=NO (stereo unspecified),170 to 171 °C
14,CCn1cc(C=CC(=O)NC2CCNC(=O)C2)nc1-c1ccccc1 (stereo unspecified),270 to 272 °C
15,CCOC(=O)c1ccc(SC)cn1,44 to 46 °C
16,CCOC1=NS(=O)(=O)C(C(=O)OC(C)(C)C)=C1N,128 to 130 °C
17,CCOC=CC(=O)Nc1cccc(C(=O)O)c1,200 to 202 °C
18,Cc1c(-c2ccccc2)oc2c(OCCCl)cccc2c1=O,141 to 142 °C
19,CC12CC(N3CCOCC3)C(O)CC1CCC1C2CCC2(C)C(O)C(N3CCCC3)CC12 (stereo unspecified),226 °C
20,N#Cc1ccc(C(CC2CCCC2)C(=O)Nc2nccs2)cc1 (stereo unspecified),62 to 64 °C
21,Cc1cc(NCCCCCCBr)ccc1O,144 to 146 °C
22,OCc1c(CO)c(-c2ccncc2)n2c1CCC2,173 to 175 °C
23,CC(C)(C)OC(=O)N1CC[C@@H](C(=O)N[C@@H](CC(=O)OCc2ccccc2)C(=O)N[C@@H](Cc2ccccc2)C(=O)OCc2ccccc2)C1,84 to 85 °C
24,COc1ccc(-c2ccc3[nH]c(=O)ccc3c2)cn1,248 to 252 °C

# Next, values leading:
row,melting point,SMILES
1,119 to 121 °C,COc1ccc(C(=O)C#CC(=O)O)c(OC)c1OC
2,270 °C,COc1cc2[nH]c(=O)c([N+](=O)[O-])c(C(F)(F)F)c2cc1OC
3,110 to 112 °C,CCOc1ccc(OCC(=O)OC(C)(C)C)c2c1C(=O)N(CSc1nnnn1-c1ccccc1)S2(=O)=O
4,250 °C,Cc1cc(-c2[nH]nc3c2C(=O)c2c(NC(=O)NN4CCN(C)CC4)cccc2-3)c(C)s1
5,216 to 218 °C,CSc1ccc2[nH]c(=O)oc(=O)c2c1
6,138 °C,CC(C)(C)OC(=O)CCc1ccnc(-c2nc(=O)c3ccc(F)cc3s2)c1
7,80 to 81 °C,COC(=O)c1ccc(-c2ccccc2CBr)cc1
8,226 to 230 °C,Cc1nc2cnccc2n1-c1ccc(CC(=O)O)cc1
9,190 to 191 °C,O=C(O)C1=Cc2cc(Br)ccc2OC1C(F)(F)F (stereo unspecified)
10,175 to 176 °C,Cc1nc(N2CCCCC2=O)sc1C(=O)NCc1ccccc1
11,195 to 196 °C,COC(=O)c1cn(S(=O)(=O)c2ccccc2)c2ncc([N+](=O)[O-])cc12
12,199 to 204 °C,Cc1c(C)c2c(c(C)c1O)C(=O)CC(C)(COc1ccc([N+](=O)[O-])cc1)O2 (stereo unspecified)
13,208 to 209 °C,C#CCN(Cc1ccc2nc(C)[nH]c(=O)c2c1)c1ccc(C(=O)NC(C)(C#N)Cc2ccccc2)cc1 (stereo unspecified)
14,105 to 108 °C,COC(=O)c1cc(Cl)c2c(c1OC)CCCN2
15,171 to 173 °C,O=C(Cc1ccccc1)c1ccc(C(=O)Cc2ccccc2)cc1
16,296 to 298 °C,O=C1CCC(n2cnc3cc(F)ccc3c2=O)C(=O)N1 (stereo unspecified)
17,150 to 152 °C,O=C1NC(=O)C(CC#Cc2cc(C(F)(F)F)cc(C(F)(F)F)c2)(S(=O)(=O)c2ccccn2)S1 (stereo unspecified)
18,42 to 43 °C,COC(=O)C(C)(C)Cc1ccc2oc(-c3nc(C(C)(C)C)cs3)cc2c1
19,145 to 147 °C,COc1cc(OC)nc(NC(=O)NS(=O)(=O)c2ncccc2C(CF)OC(C)=O)n1 (stereo unspecified)
20,261 to 262 °C,O=C(O)c1ccc(Cl)c(Sc2ccccc2[N+](=O)[O-])c1
21,190 to 192 °C,N#Cc1cn(-c2ccccc2)nc1-c1ccc([N+](=O)[O-])o1
22,59 to 60 °C,CCCCCCC(Oc1ccc(C2=CCCCCC2)cc1)C(=O)O (stereo unspecified)
23,90 °C,CCCCCc1ncc(C(=O)O)s1
24,44 °C,CCCCCCc1ccc(-c2ccc(-c3ccc(CCCCC)cc3)c(F)c2)s1
25,151 to 152 °C,COC(=O)c1cccc(-c2nc(-c3ccc(C(F)(F)F)cc3)co2)c1
26,78 to 81 °C,COC(=O)c1cc[nH]c1
27,70 °C,CCSc1ccc(C2=NC[C@@H](OC(=O)Nc3ccccc3)[C@H](c3ccccc3)O2)cc1 (racemic)

row,melting point,SMILES
1,130 to 131 °C,O=P(O)(O)CN(CP(=O)(O)O)c1ccccc1
2,290 °C,Cc1c(-c2ccc([N+](=O)[O-])o2)nc(N)n2c(C)nnc12
3,103 to 104 °C,COc1cc(C(O)P(=O)(OC)OC)cc(OC)c1OC (stereo unspecified)
4,100 to 104 °C,COCc1nn(C)c(O)c1C(=O)c1ccc(S(C)(=O)=O)c(COC)c1C
5,89 to 93 °C,CCCCCCCCCCCCCC(=O)Nc1ccc(OC)c(Nc2cc(=O)n(-c3c(Cl)cc(Cl)cc3Cl)[nH]2)c1
6,146 to 148 °C,Cc1noc(-c2ccc(F)cc2N)n1
7,206 to 208 °C,Cc1nc(N2CCCC(=Cc3cccnc3)C2=O)sc1C(=O)NCc1ccccc1
8,217 to 221 °C,COC(=O)c1ccccc1S(=O)(=O)NC(=O)Nc1ncc(Cl)cn1
9,272 to 274 °C,Cc1ncc2cc(-c3c(Cl)cccc3Br)c(N)nc2n1
10,113 to 114 °C,Brc1ccc2ccc3ccccc3c2n1
11,54 °C,C=CCc1cc(C(C)=O)c(O)cc1OCCCCC#N
12,148 to 150 °C,Nc1cc(CO)ccc1Sc1nccnc1Cl
13,133 to 134 °C,O=C(O)c1ccc(Oc2nccs2)c(F)c1
14,147 to 149 °C,c1cc(-c2ccnc3nc(N4CCNCC4)nn23)ccn1
15,52 to 53 °C,CCOC(=O)c1nnc(N(C)C)n1C
16,219 to 223 °C,COc1c([N+](=O)[O-])cc2cc(-c3ccc([N+](=O)[O-])cc3)c(=O)oc2c1OC
17,105 to 106 °C,CC(O)(C(O)CI)C(O)CI (stereo unspecified)
18,130 to 134 °C,CCCCC[C@H]1CC[C@H](C(=O)N[C@@H](C(=O)OCc2ccccc2)[C@@H](C)O)CC1
19,177 °C,Cc1cc(SCc2ccc(-c3ccc(C(F)(F)F)cc3)cc2)c2c(c1OCC(=O)O)CCC2
20,86 to 87 °C,CCCc1nc(Nc2ccc(F)c(Cl)c2)nc(NC2CCN(S(C)(=O)=O)CC2)n1
21,350 to 357 °C,NC(=O)c1ccc2nc3c(c(=O)n2c1)CCC3=Cc1ccccc1
22,102 to 105 °C,OC1c2ccccc2Sc2ccccc21
23,127 to 128 °C,O=C1CCC(NC(=O)OC(=O)c2ccccc2)(C(=O)OCc2ccc([N+](=O)[O-])cc2)O1 (stereo unspecified)
24,99 to 109 °C,O=c1[nH]c2ccc(CCCNCC[C@H]3CC[C@H](c4ccc(F)cc4)CC3)cc2o1
25,136 to 137 °C,COCC(C)Oc1cc(Oc2ccc(S(C)(=O)=O)cc2)cc2cc(C(=O)O)[nH]c12 (stereo unspecified)
26,109 to 110 °C,CCC(CC)NC(=O)c1ccc(-c2scc(-c3ccccc3Cl)c2CC(=O)NC(=N)NCCCO)cc1

# From a melting point compilation (Tetko et al.; mined from patent text by program, amines drawn as free bases though some values may be those of a salt)
